The target in the assay is human Cat S (Homo sapiens, UniProt P25774). The experiment in a line: Cathepsin enzyme inhibition assay (fluorogenic peptide substrate cleavage). The following applies: human Cat S 1 nM; substrate Z-Val-Val-Arg-AMC 20 μM; pH 6.5; fluorescence over 20 minutes. The assay is classed as biochemical. In a few lines:
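IC50 values derived from fluorescence increase (ex 360 nm, em 465 nm) monitored for 20 minutes after substrate addition. Enzyme held at 1 nM with 20 μM Z-Val-Val-Arg-AMC, in pH 6.5 potassium phosphate buffer containing DTT, EDTA and Triton X-100.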
Sequence of human Cat S (P25774 115-331): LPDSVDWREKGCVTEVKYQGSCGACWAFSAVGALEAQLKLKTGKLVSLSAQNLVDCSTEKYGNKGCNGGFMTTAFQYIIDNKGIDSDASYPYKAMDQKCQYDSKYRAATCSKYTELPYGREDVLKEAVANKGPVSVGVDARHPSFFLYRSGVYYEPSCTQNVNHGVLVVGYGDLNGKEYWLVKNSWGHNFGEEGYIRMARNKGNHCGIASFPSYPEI
`CO[C@@H]1C[C@H](S(=O)(=O)c2ccc(-n3cccn3)cc2Cl)C[C@H]1C(=O)NC1(C#N)CC1` (racemic) [Example 59, (1R,2R,4R) and (1S,2S,4S)-4-(2-Chloro-4-pyrazol-1-yl-benzenesulfonyl)-2-methoxy-cyclopentanecarboxylic acid (1-cyano-cyclopropyl)-amide]: the IC50 was found to be 4 nM. The molecule `CCN1CCC(C#N)(NC(=O)[C@@H]2C[C@@H](S(=O)(=O)c3ccccc3C(F)(F)F)C[C@H]2OCc2ccc(Cl)cc2)CC1` (racemic) [Example 239, (1R,2R,4R) and (1S,2S,4S)-2-(4-Chloro-benzyloxy)-4-(2-trifluoromethyl-benzenesulfonyl)-cyclopentanecarboxylic acid (4-cyano-1-ethyl-piperidin-4-yl)-amide] gave an IC50 of 6.25 nM. Molecule `Cc1cc(-c2ccc(S(=O)(=O)[C@H]3C[C@@H](OC4CCC4)[C@H](C(=O)NC4(C#N)CC4)C3)c(C(F)(F)F)c2)ccn1` (racemic) [Example 210, (1R,2R,4R) and (1S,2S,4S)-2-Cyclobutoxy-4-[4-(2-methyl-pyridin-4-yl)-2-trifluoromethyl-benzenesulfonyl]-cyclopentanecarboxylic acid (1-cyano-cyclopropyl)-amide] had an IC50 of 0.21 nM.

Regarding `N#CC1(NC(=O)[C@@H]2C[C@@H](S(=O)(=O)c3ccc(OCC(F)(F)F)cc3Cl)C[C@H]2C(=O)N2CCC(F)(F)C2)CC1` [Example 189, (1R,2R,4R)-4-[2-Chloro-4-(2,2,2-trifluoro-ethoxy)-benzenesulfonyl]-2-(3,3-difluoro-pyrrolidine-1-carbonyl)-cyclopentanecarboxylic acid (1-cyano-cyclopropyl)-amide], the IC50 was 0.675 nM.

In the case of `Cc1ccc(S(=O)(=O)C2C[C@@H](C(=O)NC3(C#N)CC3)[C@H](C(=O)N3CCC(F)(F)C3)C2)nn1` (mixture of isomers) [Example 224, (1R,2R,4S)-2-(3,3-Difluoro-pyrrolidine-1-carbonyl)-4-(6-methyl-pyridazine-3-sulfonyl)-cyclopentanecarboxylic acid (1-cyano-cyclopropyl)-amide and (1R,2R,4R)-2-(3,3-Difluoro-pyrrolidine-1-carbonyl)-4-(6-methyl-pyridazine-3-sulfonyl)-cyclopentanecarboxylic acid (1-cyano-cyclopropyl)-amide], half-maximal inhibition (IC50) required 32 nM. Compared with the last molecule, the IC50 is about 47-fold higher. In turn, `CN1CCN(C(=O)[C@@H]2C[C@H](S(=O)(=O)c3ccccc3)C[C@H]2C(=O)NC2(C#N)CC2)CC1` [Example 26, (1R,2R,4R)-4-Benzenesulfonyl-2-(4-methyl-piperazine-1-carbonyl)-cyclopentanecarboxylic acid (1-cyano-cyclopropyl)-amide] registered an IC50 of 1.5 nM. Regarding `CCN1CCC(C#N)(NC(=O)[C@@H]2C[C@@H](S(=O)(=O)c3ccc(-c4cnn(C)c4)cc3C(F)(F)F)C[C@H]2OC)CC1` (racemic) [Example 238, (1R,2R,4R) and (1S,2S,4S)-2-Methoxy-4-[4-(1-methyl-1H-pyrazol-4-yl)-2-trifluoromethyl-benzenesulfonyl]-cyclopentanecarboxylic acid (4-cyano-1-ethyl-piperidin-4-yl)-amide], the IC50 is 2.35 nM.

In the case of `CO[C@@H]1C[C@H](S(=O)(=O)c2ccc(-c3ccnc(C)c3)cc2C(F)(F)F)C[C@H]1C(=O)NC1(C#N)CC1` (racemic) [Example 77, (1R,2R,4R) and (1S,2S,4S)-2-Methoxy-4-[4-(2-methyl-pyridin-4-yl)-2-trifluoromethyl-benzenesulfonyl]-cyclopentanecarboxylic acid (1-cyano-cyclopropyl)-amide], half-maximal inhibition (IC50) was put at 0.6 nM. `CC(C)(C#N)NC(=O)[C@@H]1C[C@@H](S(=O)(=O)c2ccccc2)C[C@H]1C(=O)N1CCOCC1` [Example 34, (1R,2R,4R)-4-Benzenesulfonyl-2-(morpholine-4-carbonyl)-cyclopentanecarboxylic acid (cyano-dimethyl-methyl)-amide] displayed an IC50 of 2.5 nM. Under `CCN(CC)C(=O)[C@@H]1C[C@H](S(=O)(=O)c2ccccc2)C[C@H]1C(=O)NC1(C#N)CC1` [Example 25, (1R,2R,4R)-4-Benzenesulfonyl-cyclopentane-1,2-dicarboxylic acid 1-[(1-cyano-cyclopropyl)-amide]2-diethylamide] stands 2.6 nM; under `CCO[C@@H]1C[C@H](S(=O)(=O)c2ccc(-c3c(C)noc3C)cc2C(F)(F)F)C[C@H]1C(=O)NC1(C#N)CC1` (racemic) [Example 115, (1R,2R,4R) and (1S,2S,4S)-4-[4-(3,5-Dimethyl-isoxazol-4-yl)-2-trifluoromethyl-benzenesulfonyl]-2-ethoxy-cyclopentanecarboxylic acid (1-cyano-cyclopropyl)-amide], 0.2 nM. As to `N#CC1(NC(=O)[C@@H]2CC(S(=O)(=O)c3ccccc3Cl)C[C@H]2COc2ccc(O)nn2)CC1` (mixture of isomers) [Example 108, (1R,2R,4S)-4-(2-Chloro-benzenesulfonyl)-2-(6-hydroxy-pyridazin-3-yloxymethyl)-cyclopentanecarboxylic acid(1-cyano-cyclopropyl)-amide and (1R,2R,4R)-4-(2-Chloro-benzenesulfonyl)-2-(6-hydroxy-pyridazin-3-yloxymethyl)-cyclopentanecarboxylic acid(1-cyano-cyclopropyl)-amide], the IC50 was found to be 21.2 nM.

Turning to `N#CC1(NC(=O)[C@@H]2C[C@@H](S(=O)(=O)c3cccc(-c4ccnc(Cl)c4)c3)C[C@H]2C(=O)N2CCC(F)(F)C2)CC1` [Example 204, (1R,2R,4R)-4-[3-(2-Chloro-pyridin-4-yl)-benzenesulfonyl]-2-(3,3-difluoro-pyrrolidine-1-carbonyl)-cyclopentanecarboxylic acid (1-cyano-cyclopropyl)-amide], the IC50 was 0.135 nM. The molecule `N#CC1(NC(=O)[C@@H]2C[C@@H](S(=O)(=O)c3ccccc3Cl)C[C@H]2C(=O)N2CCOCC2)CC1` [Example 9, (1R,2R,4R)-4-(2-Chloro-benzenesulfonyl)-2-(morpholine-4-carbonyl)-cyclopentanecarboxylic acid (1-cyano-cyclopropyl)-amide] had an IC50 of 0.9 nM. Molecule `Cn1cc(-c2ccc(S(=O)(=O)[C@@H]3C[C@@H](C(=O)NC4(C#N)CC4)[C@H](C(=O)N4CC(F)(F)C4)C3)c(C(F)(F)F)c2)cn1` [Example 120, (1R,2R,4R)-2-(3,3-Difluoro-azetidine-1-carbonyl)-4-[4-(1-methyl-1H-pyrazol-4-yl)-2-trifluoromethyl-benzenesulfonyl]-cyclopentanecarboxylic acid (1-cyano-cyclopropyl)-amide] gave an IC50 of 0.2 nM. The molecule `N#CCNC(=O)[C@@H]1C[C@@H](S(=O)(=O)c2ccc(F)c(Cl)c2)C[C@H]1C(=O)N1CCOCC1` [Example 7, (1R,2R,4R)-4-(3-Chloro-4-fluoro-benzenesulfonyl)-2-(morpholine-4-carbonyl)-cyclopentanecarboxylic acid cyanomethyl-amide] registered an IC50 of 0.7 nM. Turning to `CC(C)CS(=O)(=O)[C@@H]1C[C@@H](C(=O)NCC#N)[C@H](C(=O)N2CCOCC2)C1` [Example 39, (1R,2R,4R)-4-(2-Methyl-propane-1-sulfonyl)-2-(morpholine-4-carbonyl)-cyclopentanecarboxylic acid cyanomethyl-amide], half-maximal inhibition (IC50) required 445 nM.

With `Cc1cccc(S(=O)(=O)[C@@H]2C[C@@H](C(=O)NC3(C#N)CC3)[C@H](C(=O)N3CCC(F)(F)C3)C2)c1` [Example 205, (1R,2R,4R)-2-(3,3-Difluoro-pyrrolidine-1-carbonyl)-4-(toluene-3-sulfonyl)-cyclopentanecarboxylic acid (1-cyano-cyclopropyl)-amide], the IC50 was determined as 0.325 nM. Consider `N#CC1(NC(=O)[C@@H]2C[C@@H](S(=O)(=O)c3ccc(F)cc3Cl)C[C@H]2C(=O)N2CC(F)(F)C2)CC1` [Example 119, (1R,2R,4R)-4-(2-Chloro-4-fluoro-benzenesulfonyl)-2-(3,3-difluoro-azetidine-1-carbonyl)-cyclopentanecarboxylic acid (1-cyano-cyclopropyl)-amide], for which the midpoint of inhibition, the IC50, lay at 6.1 nM.

As for `CCN1CCN(c2ccc(S(=O)(=O)[C@H]3C[C@@H](COc4ccc(F)cc4)[C@H](C(=O)NCC#N)C3)c(Cl)c2)CC1` [Example 147, (1R,2R,4S)-4-[2-Chloro-4-(4-ethyl-piperazin-1-yl)-benzenesulfonyl]-2-(4-fluoro-phenoxymethyl)-cyclopentanecarboxylic acid cyanomethyl-amide], the IC50 came to 0.227 nM. `N#CC1(NC(=O)[C@@H]2C[C@@H](S(=O)(=O)c3ccccc3)C[C@H]2C(=O)Nc2ccc(F)cc2)CC1` [Example 42, (1R,2R,4S)-4-Benzenesulfonyl-cyclopentane-1,2-dicarboxylic acid 1-[(1-cyano-cyclopropyl)-amide]2-[(4-fluoro-phenyl)-amide]] showed an IC50 of 25.5 nM. This IC50 is about 110-fold higher than that of the molecule before. With `Cn1cc(-c2ccc(S(=O)(=O)[C@H]3C[C@@H](OC4CCOCC4)[C@H](C(=O)NC4(C#N)CC4)C3)c(C(F)(F)F)c2)cn1` (racemic) [Example 173, (1R,2R,4R) and (1S,2S,4S)-4-[4-(1-Methyl-1H-pyrazol-4-yl)-2-trifluoromethyl-benzenesulfonyl]-2-(tetrahydro-pyran-4-yloxy)-cyclopentanecarboxylic acid (1-cyano-cyclopropyl)-amide], the concentration for half-maximal inhibition (IC50) was 0.217 nM. For the molecule `N#CC1(NC(=O)[C@@H]2C[C@@H](S(=O)(=O)c3ccc(N4CCN(C5CC5)CC4)cc3Cl)C[C@H]2C(=O)N2CC(F)(F)C2)CC1` [Example 159, (1R,2R,4R)-4-[2-Chloro-4-(4-cyclopropyl-piperazin-1-yl)-benzenesulfonyl]-2-(3,3-difluoro-azetidine-1-carbonyl)-cyclopentanecarboxylic acid (1-cyano-cyclopropyl)-amide], the IC50 came out at 0.385 nM. For the molecule `N#CC1(NC(=O)[C@@H]2C[C@@H](S(=O)(=O)c3ccc(F)cc3Cl)C[C@H]2COc2ccc(F)cc2)CC1` (single isomer, unassigned) [Example 145], the IC50 is 1.25 nM.

Values taken from patent publication US20100317647A1 (priority 2009, published 2010).
